Reference: ChEMBL document CHEMBL1201862, “PubChem BioAssay data set” (2004)
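How tested: cells in 96-well plates exposed to compound for 48 hours at five concentrations. GI50: concentration for 50% inhibition of growth.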 Activity calls are given as the source filed them. Rule as the data show it: active = GI50 up to about 1.1 µM and inactive = higher.

How the values were obtained:
Experiment in all cases: growth of human tumour cells (NCI), 48 h
[1] = tested on: 786-0
[2] = tested on: A498
[3] = tested on: A549
[4] = tested on: ACHN
[5] = tested on: BT-549
[6] = tested on: CAKI-1
[7] = tested on: CCRF-CEM
[8] = tested on: COLO 205
[9] = tested on: DU-145
[10] = tested on: EKVX
[11] = tested on: HCC 2998
[12] = tested on: HCT-116
[13] = tested on: HCT-15
[14] = tested on: HL-60
[15] = tested on: HOP-62
[16] = tested on: HOP-92
[17] = tested on: HT-29
[18] = tested on: Hs-578T
[19] = tested on: IGROV-1
[20] = tested on: K562
[21] = tested on: KM12
[22] = tested on: LOX IMVI
[23] = tested on: M14
[24] = tested on: MCF7
[25] = tested on: MDA-MB-231
[26] = tested on: MDA-MB-435
[27] = tested on: MDA-N
[28] = tested on: MOLT-4
[29] = tested on: Malme-3M
[30] = tested on: NCI-H226
[31] = tested on: NCI-H23
[32] = tested on: NCI-H460
[33] = tested on: NCI-H522
[34] = tested on: NCI/ADR-RES
[35] = tested on: OVCAR-3
[36] = tested on: OVCAR-4
[37] = tested on: OVCAR-5
[38] = tested on: OVCAR-8
[39] = tested on: PC-3
[40] = tested on: RPMI-8226
[41] = tested on: RXF 393
[42] = tested on: SF-268
[43] = tested on: SF-295
[44] = tested on: SF-539
[45] = tested on: SK-MEL-28
[46] = tested on: SK-MEL-2
[47] = tested on: SK-MEL-5
[48] = tested on: SK-OV-3
[49] = tested on: SN12C
[50] = tested on: SNB-19
[51] = tested on: SNB-75
[52] = tested on: SR
[53] = tested on: SW-620
[54] = tested on: T47D
[55] = tested on: TK-10
[56] = tested on: U-251
[57] = tested on: UACC-257
[58] = tested on: UACC-62
[59] = tested on: UO-31

SMILES: c1ccc(C2=NCCN2)c(C2=NCCN2)c1
- GI50 [1]: > 100 µM (inactive)
- GI50 [2]: > 100 µM (inactive)
- GI50 [3]: > 100 µM (inactive)
- GI50 [4]: > 100 µM (inactive)
- GI50 [5]: > 100 µM (inactive)
- GI50 [6]: > 100 µM (inactive)
- GI50 [7]: > 100 µM (inactive)
- GI50 [8]: > 100 µM (inactive)
- GI50 [9]: > 100 µM (inactive)
- GI50 [10]: > 100 µM (inactive)
- GI50 [11]: 57.3 µM (inactive)
- GI50 [12]: > 100 µM (inactive)
- GI50 [13]: 44.1 µM
- GI50 [14]: > 100 µM (inactive)
- GI50 [15]: > 100 µM (inactive)
- GI50 [16]: > 100 µM (inactive)
- GI50 [17]: > 100 µM (inactive)
- GI50 [18]: > 100 µM (inactive)
- GI50 [19]: > 100 µM (inactive)
- GI50 [20]: > 100 µM (inactive)
- GI50 [21]: > 100 µM (inactive)
- GI50 [22]: > 100 µM (inactive)
- GI50 [23]: > 100 µM (inactive)
- GI50 [24]: > 100 µM (inactive)
- GI50 [25]: > 100 µM (inactive)
- GI50 [26]: > 100 µM (inactive)
- GI50 [27]: > 100 µM (inactive)
- GI50 [28]: > 100 µM (inactive)
- GI50 [29]: > 100 µM (inactive)
- GI50 [30]: > 100 µM (inactive)
- GI50 [31]: > 100 µM (inactive)
- GI50 [32]: > 100 µM (inactive)
- GI50 [33]: > 100 µM (inactive)
- GI50 [34]: > 100 µM (inactive)
- GI50 [35]: > 100 µM (inactive)
- GI50 [36]: > 100 µM (inactive)
- GI50 [37]: > 100 µM (inactive)
- GI50 [38]: > 100 µM (inactive)
- GI50 [39]: > 100 µM (inactive)
- GI50 [40]: > 100 µM (inactive)
- GI50 [41]: > 100 µM (inactive)
- GI50 [42]: > 100 µM (inactive)
- GI50 [43]: > 100 µM (inactive)
- GI50 [44]: > 100 µM (inactive)
- GI50 [45]: > 100 µM (inactive)
- GI50 [46]: > 100 µM (inactive)
- GI50 [47]: > 100 µM (inactive)
- GI50 [48]: > 100 µM (inactive)
- GI50 [49]: > 100 µM (inactive)
- GI50 [50]: > 100 µM (inactive)
- GI50 [51]: > 100 µM (inactive)
- GI50 [52]: > 100 µM (inactive)
- GI50 [53]: > 100 µM (inactive)
- GI50 [54]: > 100 µM (inactive)
- GI50 [55]: > 100 µM (inactive)
- GI50 [56]: > 100 µM (inactive)
- GI50 [57]: > 100 µM (inactive)
- GI50 [58]: > 100 µM (inactive)
- GI50 [59]: > 100 µM (inactive)

SMILES: O=C1C(SCCO)=C(SCCO)C(=O)c2ccccc21
- GI50 [1]: 2.04 µM (inactive)
- GI50 [2]: 0.59 µM (active)
- GI50 [3]: 1.29 µM (inactive)
- GI50 [4]: 0.807 µM (active)
- GI50 [5]: 1.43 µM (inactive)
- GI50 [6]: 2.08 µM (inactive)
- GI50 [7]: 0.916 µM (active)
- GI50 [8]: 1.77 µM (inactive)
- GI50 [9]: 2.05 µM (inactive)
- GI50 [10]: 1.6 µM (inactive)
- GI50 [11]: 1.74 µM (inactive)
- GI50 [12]: 1.86 µM (inactive)
- GI50 [13]: 1.39 µM
- GI50 [14]: 1.17 µM (inactive)
- GI50 [15]: 1.85 µM (inactive)
- GI50 [16]: 0.805 µM (active)
- GI50 [17]: 2.16 µM (inactive)
- GI50 [18]: 1.17 µM (inactive)
- GI50 [19]: 0.467 µM (active)
- GI50 [20]: 1.67 µM (inactive)
- GI50 [21]: 1.75 µM (inactive)
- GI50 [22]: 0.222 µM (active)
- GI50 [23]: 0.815 µM (active)
- GI50 [24]: 0.791 µM (active)
- GI50 [25]: 1.48 µM (inactive)
- GI50 [26]: 0.186 µM (active)
- GI50 [27]: 0.167 µM (active)
- GI50 [28]: 0.0794 µM (active)
- GI50 [29]: 1.1 µM (active)
- GI50 [30]: 1.71 µM (inactive)
- GI50 [31]: 0.518 µM (active)
- GI50 [32]: 1.77 µM (inactive)
- GI50 [33]: 1.86 µM (inactive)
- GI50 [34]: 0.94 µM (active)
- GI50 [35]: 0.986 µM (active)
- GI50 [36]: 0.252 µM (active)
- GI50 [37]: 1.16 µM (inactive)
- GI50 [38]: 0.579 µM (active)
- GI50 [39]: 2.1 µM (inactive)
- GI50 [40]: 0.865 µM (active)
- GI50 [41]: 1.33 µM (inactive)
- GI50 [42]: 1.56 µM (inactive)
- GI50 [43]: 1.48 µM (inactive)
- GI50 [44]: 0.745 µM (active)
- GI50 [45]: 1.67 µM (inactive)
- GI50 [46]: 2 µM (inactive)
- GI50 [47]: 0.238 µM (active)
- GI50 [48]: 1.66 µM (inactive)
- GI50 [49]: 1.6 µM (inactive)
- GI50 [50]: 1.78 µM (inactive)
- GI50 [51]: 1.29 µM (inactive)
- GI50 [52]: 1.51 µM (inactive)
- GI50 [53]: 0.695 µM (active)
- GI50 [54]: 1.22 µM (inactive)
- GI50 [55]: 1.62 µM (inactive)
- GI50 [56]: 0.711 µM (active)
- GI50 [57]: 1.29 µM (inactive)
- GI50 [58]: 1.44 µM (inactive)
- GI50 [59]: 1.08 µM (active)
